These results are taken from ChEMBL document CHEMBL1201862, “PubChem BioAssay data set” (2004).

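Cultured in 96-well plates, cells were exposed to test compound for 48 hours across five concentrations. The concentration for 50% growth inhibition is given as GI50.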 Activity calls are given as the source filed them. Rule as the data show it: active = GI50 up to about 1.1 µM and inactive = higher.

Assay in all cases: NCI-60 cell line screen, 48 h
In assay [1] the test system is NCI-H460.
Assay [2] relates to SF-539.
The subject of assay [3] is RXF 393.
For assay [4], the system named is CCRF-CEM.
The subject of assay [5] is SK-MEL-5.
Assay [6] concerns ACHN.
In assay [7] the test system is SW-620.
In assay [8] the test system is Hs-578T.
For assay [9], the system named is HCT-15.
The test system of assay [10] is A549.
Assay [11] has as its system M14.
In assay [12] the test system is HL-60.
Assay [13] concerns OVCAR-8.
Assay [14] deals with UACC-257.
Assay [15] relates to OVCAR-5.
The test system of assay [16] is MCF7.
Assay [17] relates to UO-31.
In assay [18] the test system is OVCAR-4.
In assay [19] the test system is SNB-75.
Assay [20] relates to 786-0.

For `COc1ccc(Cc2cc(OC)c(OC)c(OC)c2)cc1O`, the GI50 in assay [1] was 0.0841 µM (active); in assay [2], 0.0334 µM (active); in [3], 0.181 µM (active); in [4] it was 0.0177 µM (active); in assay [5] it was 0.0215 µM (active); in assay [6], 0.167 µM (active). Also, the GI50 in [7] is < 0.01 µM (active); in assay [8], 0.0137 µM (active); in assay [9] it was 0.019 µM; in assay [10] it was 0.119 µM (active); in [11], 0.0255 µM (active); in assay [12], 0.0235 µM (active). The GI50 in assay [13] was 0.0769 µM (active); in assay [14], 3.95 µM (inactive); in assay [15] it was 68.1 µM (inactive); in assay [16] it was 0.0244 µM (active); in [17] it was 1.03 µM (active); in assay [18], 42.5 µM (inactive). The figures for the GI50 in assay [19] and in assay [20] were < 0.01 µM (active) and 0.116 µM (active), respectively.
For the compound `CC(C(=O)O)c1ccc(-c2ccccc2)c(F)c1` (stereo not given) [FLURBIPROFEN], the GI50 in assay [1], in [2], in [3], in [4], in assay [5] and in assay [6] was > 100 µM (inactive) throughout. For the same compound, the GI50 in assay [7] was > 100 µM (inactive); in [8], > 100 µM (inactive); in [9], over 100 µM; in [10], > 100 µM (inactive); in [11] it was > 100 µM (inactive); in assay [12] it was > 100 µM (inactive). Moreover, the GI50 in assay [13], in assay [14], in [15], in assay [16], in assay [17] and in assay [18] was > 100 µM (inactive) each time. Further, the GI50 in assay [19] and in assay [20] was > 100 µM (inactive) in each case.
On to `CCOC(=O)c1oc2cc3c(c4c2c1-c1ccccc1N4C)C=CC(C)(C)O3`, for which the GI50 was 20.5 µM (inactive) in [1]; 6.4 µM (inactive) in assay [2]; 7.31 µM (inactive) in assay [3]; 12.4 µM (inactive) in [4]; 15.8 µM (inactive) in assay [5]; 8.89 µM (inactive) in [6]. Moreover, the GI50 in [7] was 59.8 µM (inactive); in assay [8], 19.9 µM (inactive); in assay [9], 50.4 µM; in [10] it was 24.5 µM (inactive); in assay [11] it was 40.2 µM (inactive); in assay [12] it was 24.4 µM (inactive). In addition, the GI50 is 5.85 µM (inactive) in assay [13]; 31.2 µM (inactive) in assay [14]; 29.9 µM (inactive) in assay [15]; 2.37 µM (inactive) in assay [16]; 19.5 µM (inactive) in assay [17]; 6.58 µM (inactive) in assay [18]. The GI50 in [19] is 12.6 µM (inactive); in [20], 7.06 µM (inactive).
`[N-]=[N+]=NC1C(O)C(CO)OC1n1ccc(=O)[nH]c1=O` (stereo not given): the GI50 in [1] is > 875 µM (inactive); in assay [2], > 875 µM (inactive); in assay [3] it was 0.0875 µM (active); in assay [4], > 875 µM (inactive); in assay [5], > 875 µM (inactive); in assay [6], > 875 µM (inactive). Also, the GI50 in assay [7] is > 875 µM (inactive); in [8], > 875 µM (inactive); in [9], over 875 µM; in assay [10], > 875 µM (inactive); in assay [11], > 875 µM (inactive); in assay [12] it was 863 µM (inactive). The GI50 in assay [13], in assay [14], in assay [15], in assay [16], in assay [17] and in assay [18] was > 875 µM (inactive) in each case. Also, the GI50 in assay [19] and in [20] was > 875 µM (inactive) throughout.
With `Cc1nc(N)nc2ccccc12`, the GI50 in [1], in assay [2], in [3], in [4], in [5] and in assay [6] was > 100 µM (inactive) in each case. Also, the GI50 in [7] is > 100 µM (inactive); in [8], > 100 µM (inactive); in assay [9], over 100 µM; in [10], > 100 µM (inactive); in assay [11], > 100 µM (inactive); in assay [12], > 100 µM (inactive). The GI50 in [13], in assay [14], in assay [15], in [16], in assay [17] and in assay [18] was > 100 µM (inactive) in each case. In addition, the GI50 in [19] is 60 µM (inactive); in assay [20] it was > 100 µM (inactive).
For `CN(C)CCCOC(=O)C(c1ccccc1)C1(O)CCSCC1` (stereo not given), the GI50 in assay [1], in [2], in assay [3], in assay [4], in [5] and in assay [6] was > 100 µM (inactive) throughout. Moreover, the GI50 is 32.3 µM (inactive) in [7]; > 100 µM (inactive) in [8]; over 100 µM in assay [9]; > 100 µM (inactive) in assay [10]; > 100 µM (inactive) in [11]; > 100 µM (inactive) in assay [12]. The GI50 in assay [13], in assay [14], in [15], in assay [16], in assay [17] and in assay [18] was > 100 µM (inactive) throughout. The GI50 in [19] was 87.1 µM (inactive); in assay [20], > 100 µM (inactive).
Turning to `C/C(=N\NC(=O)N/N=C(\C)c1ccccn1)c1ccccn1`, the GI50 in assay [1] was 0.953 µM (active); in [2] it was 0.188 µM (active); in assay [3], 28.1 µM (inactive); in assay [4] it was 9.18 µM (inactive); in assay [5], 0.296 µM (active); in assay [6], 18.2 µM (inactive). Besides, the GI50 was 0.726 µM (active) in assay [7]; > 38.6 µM (inactive) in [8]; 37.8 µM in assay [9]; 4.88 µM (inactive) in assay [10]; 0.205 µM (active) in [11]; 0.0767 µM (active) in assay [12]. For the same compound, the GI50 in [13] was 9.75 µM (inactive); in assay [14], > 100 µM (inactive); in assay [15], > 52.6 µM (inactive); in assay [16] it was 7.16 µM (inactive); in assay [17], 22.8 µM (inactive); in assay [18], 42 µM (inactive). The GI50 was > 100 µM (inactive) in assay [19] and 2.66 µM (inactive) in assay [20].
